PubChem BioAssay AID1963983 (Molecular Pharmacology Branch, DTP, NCI, 2024)
Several values for one entry are separate records, joined by “and”; a condition that tells them apart may be missing. Equal entries are not always repeated.

Test system: 186277-243-T-J2-PDC multi-cell spheroid viability
Test: Anticancer human tumor 186277-243-T-J2-PDC patient-derived colon adenocarcinoma cell line growth inhibition [PI3K]
Settings: for viability, T/C: stronger effect = lower value
In short: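 Viability of mixed-cell spheroids was determined after exposure to pairwise combinations, one partner being inavolisib, alpelisib, duvelisib or copanlisib. Highest tested concentration matched clinical Cmax where known and 10 microM where not, descending in half-log steps.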

[1] = curve of first compound, second compound 0.00316 µM
[2] = curve of first compound, second compound 0.01 µM
[3] = curve of first compound, second compound 0.0316 µM
[4] = curve of first compound, second compound 0.1 µM
[5] = curve of first compound, second compound 0.316 µM
[6] = curve of first compound, second compound 1 µM
[7] = second compound 0.00316 µM, first compound 0.0316 µM
[8] = second compound 0.00316 µM, first compound 0.1 µM
[9] = second compound 0.00316 µM, first compound 0.316 µM
[10] = second compound 0.00316 µM, first compound 1 µM
[11] = second compound 0.00316 µM, first compound 3.16 µM
[12] = second compound 0.00316 µM, first compound 10 µM
[13] = second compound 0.01 µM, first compound 0.0316 µM
[14] = second compound 0.01 µM, first compound 0.1 µM
[15] = second compound 0.01 µM, first compound 0.316 µM
[16] = second compound 0.01 µM, first compound 1 µM
[17] = second compound 0.01 µM, first compound 3.16 µM
[18] = second compound 0.01 µM, first compound 10 µM
[19] = second compound 0.0316 µM, first compound 0.0316 µM
[20] = second compound 0.0316 µM, first compound 0.1 µM
[21] = second compound 0.0316 µM, first compound 0.316 µM
[22] = second compound 0.0316 µM, first compound 1 µM
[23] = second compound 0.0316 µM, first compound 3.16 µM
[24] = second compound 0.0316 µM, first compound 10 µM
[25] = second compound 0.1 µM, first compound 0.0316 µM
[26] = second compound 0.1 µM, first compound 0.1 µM
[27] = second compound 0.1 µM, first compound 0.316 µM
[28] = second compound 0.1 µM, first compound 1 µM
[29] = second compound 0.1 µM, first compound 3.16 µM
[30] = second compound 0.1 µM, first compound 10 µM
[31] = second compound 0.316 µM, first compound 0.0316 µM
[32] = second compound 0.316 µM, first compound 0.1 µM
[33] = second compound 0.316 µM, first compound 0.316 µM
[34] = second compound 0.316 µM, first compound 1 µM
[35] = second compound 0.316 µM, first compound 3.16 µM
[36] = second compound 0.316 µM, first compound 10 µM
[37] = second compound 1 µM, first compound 0.0316 µM
[38] = second compound 1 µM, first compound 0.1 µM
[39] = second compound 1 µM, first compound 0.316 µM
[40] = second compound 1 µM, first compound 1 µM
[41] = second compound 1 µM, first compound 3.16 µM
[42] = second compound 1 µM, first compound 10 µM
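Note: spheroids exposed to compounds for seven days before viability reading.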
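Throughout, for viability, T/C: 100% = DMSO vehicle control viability.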

Which results are given for C[C@@H](NC(=O)c1ncnc(N)c1Cl)c1ncc(C(=O)Nc2cc(C(F)(F)F)c(Cl)cn2)s1 + CC(Nc1ccc2c(c1)OCCn1cc(N3C(=O)OCC3C(F)F)nc1-2)C(N)=O?
IC50 [1]: > 10000 nM; IC50 [2]: > 10000 nM; IC50 [3]: > 10000 nM; IC50 [4]: 5930 nM; IC50 [5]: 1850 nM; IC50 [6]: 344 nM; viability, T/C [7]: 83.2%; viability, T/C [8]: 87.1%; viability, T/C [9]: 93%; viability, T/C [10]: 99.1%; viability, T/C [11]: 113%; viability, T/C [12]: 75.8%; viability, T/C [13]: 103%; viability, T/C [14]: 101%; viability, T/C [15]: 96.2%; viability, T/C [16]: 102%; viability, T/C [17]: 108%; viability, T/C [18]: 72.4%; viability, T/C [19]: 98.6%; viability, T/C [20]: 107%; viability, T/C [21]: 101%; viability, T/C [22]: 104%; viability, T/C [23]: 93.7%; viability, T/C [24]: 56.1%; viability, T/C [25]: 97.4%; viability, T/C [26]: 105%; viability, T/C [27]: 96.4%; viability, T/C [28]: 108%; viability, T/C [29]: 72.8%; viability, T/C [30]: 31.1%; viability, T/C [31]: 85.9%; viability, T/C [32]: 92.4%; viability, T/C [33]: 87.3%; viability, T/C [34]: 67.5%; viability, T/C [35]: 34.4%; viability, T/C [36]: 12.8%; viability, T/C [37]: 56.2%; viability, T/C [38]: 54.4%; viability, T/C [39]: 51.4%; viability, T/C [40]: 35.8%; viability, T/C [41]: 13.7%; viability, T/C [42]: 4.09%

Which results are given for CCN1CCN(Cc2ccc(Nc3ncc(F)c(-c4cc(F)c5nc(C)n(C(C)C)c5c4)n3)nc2)CC1?
viability, T/C (compound 0.00316 µM): 102% [middle of 4 runs]; viability, T/C (compound 0.01 µM): 101% [middle of 4 runs]; viability, T/C (compound 0.0316 µM): 106% [middle of 4 runs]; viability, T/C (compound 0.1 µM): 130% [middle of 4 runs]; viability, T/C (compound 0.316 µM): 146% and 156% and 145% (2×); viability, T/C (compound 1 µM): 146% [middle of 4 runs]; IC50 (curve of compound): > 1000 nM

Which results are given for C#Cc1c(F)ccc2cc(O)cc(-c3ncc4c(N5CC6CCC(C5)N6)nc(OCC56CCCN5CC(F)C6)nc4c3F)c12 (stereo not drawn) + CC(Nc1ccc2c(c1)OCCn1cc(N3C(=O)OCC3C(F)F)nc1-2)C(N)=O?
IC50 [1]: 60.3 nM; IC50 [2]: 58.9 nM; IC50 [3]: < 31.6 nM; IC50 [4]: < 31.6 nM; IC50 [5]: < 31.6 nM; IC50 [6]: < 31.6 nM; viability, T/C [7]: 73.4%; viability, T/C [8]: 31.6%; viability, T/C [9]: 16.4%; viability, T/C [10]: 16.3%; viability, T/C [11]: 12.6%; viability, T/C [12]: 8.99%; viability, T/C [13]: 72.2%; viability, T/C [14]: 31.1%; viability, T/C [15]: 15.8%; viability, T/C [16]: 11.8%; viability, T/C [17]: 14%; viability, T/C [18]: 9.85%; viability, T/C [19]: 48.9%; viability, T/C [20]: 23.6%; viability, T/C [21]: 13.1%; viability, T/C [22]: 14.6%; viability, T/C [23]: 7.53%; viability, T/C [24]: 7.66%; viability, T/C [25]: 24.8%; viability, T/C [26]: 9.05%; viability, T/C [27]: 12.4%; viability, T/C [28]: 7.52%; viability, T/C [29]: 6.59%; viability, T/C [30]: 4.7%; viability, T/C [31]: 10.9%; viability, T/C [32]: 7.34%; viability, T/C [33]: 4.32%; viability, T/C [34]: 4.02%; viability, T/C [35]: 4.87%; viability, T/C [36]: 2.61%; viability, T/C [37]: 15.1%; viability, T/C [38]: 8.27%; viability, T/C [39]: 6.04%; viability, T/C [40]: 3.18%; viability, T/C [41]: 3.45%; viability, T/C [42]: 1.57%

What does the source list for CC1(C)CCC(CN2CCN(c3ccc(C(=O)NS(=O)(=O)c4ccc(NCC5CCOCC5)c([N+](=O)[O-])c4)c(Oc4cnc5[nH]ccc5c4)c3)CC2)=C(c2ccc(Cl)cc2)C1 + COc1c(OCCCN2CCOCC2)ccc2c3n(c(=NC(=O)c4cnc(N)nc4)nc12)CCN3?
IC50 [1]: > 10000 nM; IC50 [2]: > 10000 nM; IC50 [3]: > 10000 nM; IC50 [4]: < 31.6 nM; IC50 [5]: < 31.6 nM; IC50 [6]: < 31.6 nM; viability, T/C [7]: 110%; viability, T/C [8]: 96.2%; viability, T/C [9]: 110%; viability, T/C [10]: 108%; viability, T/C [11]: 93%; viability, T/C [12]: 115%; viability, T/C [13]: 99.1%; viability, T/C [14]: 105%; viability, T/C [15]: 96.5%; viability, T/C [16]: 109%; viability, T/C [17]: 82.6%; viability, T/C [18]: 94%; viability, T/C [19]: 80.8%; viability, T/C [20]: 89.3%; viability, T/C [21]: 80.5%; viability, T/C [22]: 78.5%; viability, T/C [23]: 76.1%; viability, T/C [24]: 71.2%; viability, T/C [25]: 26.6%; viability, T/C [26]: 20.3%; viability, T/C [27]: 21.3%; viability, T/C [28]: 21.3%; viability, T/C [29]: 23.9%; viability, T/C [30]: 16.9%; viability, T/C [31]: 5.48%; viability, T/C [32]: 11.5%; viability, T/C [33]: 4.51%; viability, T/C [34]: 6.03%; viability, T/C [35]: 6.17%; viability, T/C [36]: 4.39%; viability, T/C [37]: 2.94%; viability, T/C [38]: 4.42%; viability, T/C [39]: 3.06%; viability, T/C [40]: 2.7%; viability, T/C [41]: 5.01%; viability, T/C [42]: 2.15%
